Consider three compounds from US20080227855A1, “Solid Dispersion of Hydrophobic Bioactive” (priority 2005, published 2008).

Structures are written as SMILES.

A short description of data set [1]: XRPD analysis of crystallinity (amorphous stability) of spray dried dispersions on storage. In kind it is physicochemical. As to conditions: stored at room temperature under vacuum (FIG. 8). Here is the method:
All dispersions were spray dried using a Niro SD spray dryer connected to a nitrogen generator.
Solutions for dispersions were prepared by dissolving griseofulvin, a major excipient (PVP) and a minor excipient in an acetone water co-solvent system. To ensure homogeneity, the dispersions were allowed to mix for eight hours before the dispersion was spray dried using a Niro SD system under nitrogen conditions with an inlet temperature of 65° C. and an outlet temperature of 45° C. The feed rate was around 15% of maximum and the nitrogen flow rates were 20 kg/hr and 2 kg/hr for the drying and atomization rates respectively.
The samples were then stored under constant vacuum for 24 hours to allow for the removal of solvent before being transferred to the required conditions.
A Philips PW37010 X-ray Powder Diffractometer (Philips, Cambridge, UK) was used to analyse the samples for crystallization, with a sample XRPD scans shown in FIGS. 1a and 1b.
This was compressed to produce a flat surface before being loaded into the XRPD. […]
Pure crystalline griseofulvin or flavanone was subjected to the same methodology to produce a standard XRPD scan. A number of peaks were selected from each of these standards to produce a 100% crystalline value expressed as X-ray count/°2Θ these were then compared with the area under the peaks of the dispersions to produce percentage crystallinity values.

The conditions of data set [2]: indomethacin with PVP, hydrogen bonding; cited from earlier work.
The conditions of data set [3]: griseofulvin dispersed in PVP (high Tg polymer); cited from earlier work.
Data set [4] can be described thus: Dissolution, USP paddle method. The class given is physicochemical. As to conditions: pH6.8 buffer at 37 C, 100 rpm (FIG. 11). Here is the method: Dispersions were prepared as described above containing Gris:PVP 1:1; Gris:PHPMA:PVP 2.5:1.25:1.25, and compared to Gris spray dried without polymer and crystalline Gris. Dissolution data were prepared by placing a small amount of sample in a hard gelatine capsule and following dissolution in pH6.8 buffer at 37 C (with added surfactant if dispersion was required), using a USP paddle method.

As to `O=C1CC(c2ccccc2)Oc2ccccc21` (centres unmarked) [Flavanone], the “crystallinity by XRPD” value in data set [1] (Flavanone dispersed with PVP) was “near completely crystalline”; in data set [1] (Flavanone dispersed with a combination of PHPMA and PVP), “only partial crystallinity”.

Take `COc1ccc2c(c1)c(CC(=O)O)c(C)n2C(=O)c1ccc(Cl)cc1` [Indomethacin]: the amorphous stability entry in data set [2] is reported as “above that expected on the basis of glass transition temperature alone”.

Turning to `COC1=CC(=O)C[C@@H](C)[C@]12Oc1c(Cl)c(OC)cc(OC)c1C2=O` [griseofulvin, Griseofulvin], in data set [3], the “crystallisation of drug dispersed in polymer” value is listed as “relatively rapid crystallisation”. In addition, the dissolution result in data set [4] is “slow dissolution”.
